What was measured:
[1] = target: T1, hBest2 (Homo sapiens, UniProt Q8NFU1); assay: whole-cell patch clamp, HEK293; assay type: cell-based
T1 sequence (Q8NFU1 1-509): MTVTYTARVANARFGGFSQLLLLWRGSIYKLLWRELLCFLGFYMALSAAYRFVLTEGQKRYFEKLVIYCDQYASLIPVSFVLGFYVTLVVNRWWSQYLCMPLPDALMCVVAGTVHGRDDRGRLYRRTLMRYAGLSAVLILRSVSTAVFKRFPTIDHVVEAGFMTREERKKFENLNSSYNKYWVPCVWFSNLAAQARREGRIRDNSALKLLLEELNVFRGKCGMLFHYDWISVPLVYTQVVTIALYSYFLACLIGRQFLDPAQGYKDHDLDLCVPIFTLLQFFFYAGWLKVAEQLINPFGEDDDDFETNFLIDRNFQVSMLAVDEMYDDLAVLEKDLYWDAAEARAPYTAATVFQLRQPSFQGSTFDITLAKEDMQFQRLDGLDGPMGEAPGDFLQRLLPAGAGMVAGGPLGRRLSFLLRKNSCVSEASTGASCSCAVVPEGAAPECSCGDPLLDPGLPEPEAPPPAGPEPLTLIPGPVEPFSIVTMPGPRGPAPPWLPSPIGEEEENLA

[2] = target: the molecule itself; assay: cryo-EM structure

`N[C@@H](CCC(=O)O)C(=O)O` [glutamate] showed an EC50 [1] of 46 mM.

B1: bovine bestrophin-2, purified for cryo-EM (GFP-His tag removed) (natural protein)
chain: MTVTYTARVAKARFGGFSKLLLLWRGSIYKLLWRELLCFLGLFMALSAAYRFVLTEEQKRYFEKLVLYCDRYASLIPVSFVLGFYVTLVVHRWWNQYLSMPLTDALMCVVVGTVHGHDERGRLYRRTLMRYAGLSGVLILRSVSTAVFKRFPTIDHVVEAGFMTREERKKFENLNSSYNKYWVPCVWFCNLAAQARREGRIRDNGAFKLLLEELNVFRSKCGMLFHYDWISVPLVYTQVVTIAVYSYFLACLIGRQFLDPAQGYKDHDLDLCVPIFTLLQFFFYAGWLKVAEQLINPFGEDDDDFETNFLIDRCFQVSMLAVDEMYDDLAMLEKDLYWDAAEARAPYTAATAFLMQQPSFQGSTFDITLAKEDMQFQRQDGLEAPLNEAHGDFLQRLLPVGTGMGTGGLL
B1 was tested, and the “stoichiometry N” value [2] was 5.
